# Test results reported in publication PMC7583898, “Novel Harmicines with Improved Potency against Plasmodium” (Molecules, 2020).
# Where two headings read alike, the source gives them in different places.
# Columns and labels:
# [1] = test system: P. falciparum erythrocytic stage, Pf3D7 (chloroquine-sensitive) strain; assay: In vitro drug sensitivity assay against erythrocytic stage of P. falciparum, Pf3D7 strain (HRP2-ELISA); type: cell-based; conditions: Plasmodium falciparum, mean ± SD
# Description: (§1) The antiplasmodial activity of harmicines 5 and 6 was evaluated against two laboratory P. falciparum strains (3D7 – CQ-sensitive, and Dd2 – CQ-resistant), as previously described, using the histidine-rich protein 2 (HRP2) assay. […] After three days of incubation at 37 °C, 5% CO2 and 5% oxygen, plates were frozen until analyzed by HRP2-ELISA. All compounds were evaluated in duplicate in at least two independent experiments. The IC50 was determined by nonlinear regression analysis of log concentration–response curves using the drc package v0.9.0 of R v2.6.1 [22].
# [2] = test system: P. falciparum erythrocytic stage, PfDd2 (chloroquine-resistant) strain; assay: In vitro drug sensitivity assay against erythrocytic stage of P. falciparum, PfDd2 strain (HRP2-ELISA); type: cell-based; conditions: Plasmodium falciparum, mean ± SD
# Description: as §1
# [3] = test system: human liver hepatocellular carcinoma cell line (HepG2); assay: In vitro cytotoxicity assay (neutral red); type: cell-based; conditions: for IC50: Homo sapiens, HepG2, 24 h, neutral red, one day incubation, mean ± SD; for SI, selectivity index: ratio between IC50 (HepG2) and IC50 (Pf3D7)
# Description: A cytotoxicity assay was performed using the neutral red assay, as described previously, against human liver hepatocellular carcinoma cell line (HepG2) (Table 1). For the safety assessment, a selectivity index (SI) for each compound was calculated as the fractional ratio between the IC50 values for HepG2 and P. falciparum Pf3D7 strain (Table 2). In general, N-harmicines 5 are less cytotoxic than O-harmicines 6, which is in agreement with the results obtained for triazole-type harmicines. Furthermore, all N-harmicines, but only two O-harmicines, 6d and 6f, have more favorable SIs than the parent compound harmine (SI = 30). […] Compound 5b, with a m-fluorine substituent in the cinnamic scaffold, exerted the highest selectivity (SI = 773), followed by 5a, an amide with unsubstituted cinnamic acid (SI = 715).
# Cytotoxicity against a human cell line (HepG2) was evaluated using the neutral red assay. In brief, human cells were seeded to a 96 well plate in complete culture medium, before on the following day a serial dilution of the respective compound was added. After one day of incubation, cytotoxicity was evaluated by the addition of Neutral Red, subsequent lysis of cells and the measurement of absorbance in a plate reader. The IC50 was determined as for the in vitro drug assay against P. falciparum. To assess the safety of a compound, SI was calculated as the fractional ratio between the IC50 values for HepG2 and the P. falciparum 3D7 strain.
# [4] = test system: P. falciparum erythrocytic stage, Pf3D7 (chloroquine-sensitive) strain; design: method as in PMID 31812035; conditions: ref [15]; cited from earlier work
# [5] = test system: P. falciparum erythrocytic stage, PfDd2 (chloroquine-resistant) strain; conditions: ref [15]; cited from earlier work
# [6] = test system: human liver hepatocellular carcinoma cell line (HepG2); design: method as in PMID 31812035; conditions: ref [15]; cited from earlier work
Structure (SMILES),IC50 [1],IC50 [2],IC50 [3],"SI, selectivity index [3]",IC50 [4],IC50 [5],IC50 [6]
"COc1ccc2c3ccnc(C)c3n(CCNC(=O)C=Cc3ccccc3)c2c1 [5a, N-(2-(7-methoxy-1-methyl-9H-pyrido[3,4-b]indol-9-yl)ethyl)cinnamamide]",490 ± 250 nM,1110 ± 150 nM,350000 ± 13000 nM,715,,,
"COc1ccc2c3ccnc(C)c3n(CCNC(=O)/C=C/c3cccc(F)c3)c2c1 [5b, (E)-3-(3-fluorophenyl)-N-(2-(7-methoxy-1-methyl-9H-pyrido[3,4-b]indol-9-yl)ethyl)acrylamide]",70 ± 30 nM,780 ± 320 nM,54100 ± 13400 nM,773,,,
"COc1ccc2c3ccnc(C)c3n(CCNC(=O)/C=C/c3cccc(Br)c3)c2c1 [5c, (E)-3-(3-bromophenyl)-N-(2-(7-methoxy-1-methyl-9H-pyrido[3,4-b]indol-9-yl)ethyl)acrylamide]",70 ± 30 nM,410 ± 10 nM,2880 ± 420 nM,41,,,
"COc1ccc2c3ccnc(C)c3n(CCNC(=O)/C=C/c3ccc(F)cc3)c2c1 [5d, (E)-3-(4-fluorophenyl)-N-(2-(7-methoxy-1-methyl-9H-pyrido[3,4-b]indol-9-yl)ethyl)acrylamide]",90 ± 60 nM,330 ± 110 nM,21000 ± 880 nM,233,,,
"COc1ccc2c3ccnc(C)c3n(CCNC(=O)/C=C/c3ccc(Cl)cc3)c2c1 [5e, (E)-3-(4-chlorophenyl)-N-(2-(7-methoxy-1-methyl-9H-pyrido[3,4-b]indol-9-yl)ethyl)acrylamide]",40 ± 20 nM,170 ± 10 nM,2910 ± 1750 nM,73,,,
"COc1ccc(/C=C/C(=O)NCCn2c3cc(OC)ccc3c3ccnc(C)c32)cc1 [5f, (E)-N-(2-(7-methoxy-1-methyl-9H-pyrido[3,4-b]indol-9-yl)ethyl)-3-(4-methoxyphenyl)acrylamide]",260 ± 1 nM,490 ± 240 nM,74700 ± 7610 nM,287,,,
"Cc1nccc2c1[nH]c1cc(OCCNC(=O)C=Cc3ccccc3)ccc12 [6a, N-(2-((1-methyl-9H-pyrido[3,4-b]indol-7-yl)oxy)ethyl)cinnamamide]",980 ± 120 nM,4700 ± 2650 nM,12700 ± 660 nM,13,,,
"Cc1nccc2c1[nH]c1cc(OCCNC(=O)/C=C/c3cccc(F)c3)ccc12 [6b, (E)-3-(3-fluorophenyl)-N-(2-((1-methyl-9H-pyrido[3,4-b]indol-7-yl)oxy)ethyl)acrylamide]",2750 ± 1600 nM,5010 ± 830 nM,12900 ± 3310 nM,5,,,
"Cc1nccc2c1[nH]c1cc(OCCNC(=O)/C=C/c3cccc(Br)c3)ccc12 [6c, (E)-3-(3-bromophenyl)-N-(2-((1-methyl-9H-pyrido[3,4-b]indol-7-yl)oxy)ethyl)acrylamide]",370 ± 220 nM,480 ± 280 nM,6110 ± 2070 nM,16,,,
"Cc1nccc2c1[nH]c1cc(OCCNC(=O)/C=C/c3ccc(F)cc3)ccc12 [6d, (E)-3-(4-fluorophenyl)-N-(2-((1-methyl-9H-pyrido[3,4-b]indol-7-yl)oxy)ethyl)acrylamide]",150 ± 60 nM,690 ± 180 nM,7630 ± 2470 nM,51,,,
"Cc1nccc2c1[nH]c1cc(OCCNC(=O)/C=C/c3ccc(Cl)cc3)ccc12 [6e, (E)-3-(4-chlorophenyl)-N-(2-((1-methyl-9H-pyrido[3,4-b]indol-7-yl)oxy)ethyl)acrylamide]",320 ± 30 nM,400 ± 240 nM,7720 ± 3040 nM,24,,,
"COc1ccc(/C=C/C(=O)NCCOc2ccc3c(c2)[nH]c2c(C)nccc23)cc1 [6f, (E)-3-(4-methoxyphenyl)-N-(2-((1-methyl-9H-pyrido[3,4-b]indol-7-yl)oxy)ethyl)acrylamide]",210 ± 140 nM,1090 ± 490 nM,10500 ± 430 nM,50,,,
"Cc1nccc2c1[nH]c1cc(OCCNC(=O)/C=C/c3ccccc3F)ccc12 [6g, (E)-3-(2-fluorophenyl)-N-(2-((1-methyl-9H-pyrido[3,4-b]indol-7-yl)oxy)ethyl)acrylamide]",930 ± 280 nM,3920 ± 1350 nM,16200 ± 1860 nM,17,,,
"C/C(=C\c1ccccc1)C(=O)NCCOc1ccc2c(c1)[nH]c1c(C)nccc12 [6h, (E)-2-methyl-N-(2-((1-methyl-9H-pyrido[3,4-b]indol-7-yl)oxy)ethyl)-3-phenylacrylamide]",6780 ± 720 nM,19500 ± 11800 nM,61300 ± 2750 nM,9,,,
"CCN(CC)CCCC(C)Nc1ccnc2cc(Cl)ccc12 (stereo not drawn) [CQ, chloroquine]",,,,,3 ± 2 nM,200 ± 100 nM,
"COc1ccc2c(c1)[nH]c1c(C)nccc12 [Harmine, harmine]",,,,,,> 27700 nM,> 250000 nM
